Literature values, collected in US10857195B2, “Plant extracts for improving sleep” (Kemin Industries, Inc., priority 2014, dated 2020).

Tested on: aging mice
Settings: RA administered to aging mice

SMILES: O=C(/C=C/c1ccc(O)c(O)c1)O[C@H](Cc1ccc(O)c(O)c1)C(=O)O [RA, Rosmarinic acid]
- catalase (CAT) activity in the brain: increased
- malondialdehyde (MDA) in the brain: decreasing
- superoxide dismutase (SOD) activity in the brain: increased
